The results in this text go back to US11590116B2 (THERAVANCE BIOPHARMA R&D IP, LLC, priority 2019, dated 2023).

For test [1], the system named is TGF-β-stimulated SMAD3 phosphorylation in BEAS-2B cells. As to the kind of experiment: Cellular ALK5 potency assay, inhibition of TGF-β stimulated pSMAD3 formation in BEAS-2B cells. To be noted: Homo sapiens; inhibition of TGF-β stimulated pSMAD3 formation, BEAS-2B cells; read-out: BEAS2B pIC50 (converted). Format: cell-based. In a few lines: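 Potency is reported as pIC50, derived from concentration-dependent reduction of pSMAD3 AlphaLISA signal against TGF-β-stimulated cells without compound. BEAS-2B cells received compound for 1 h before a 30-min stimulation with 10 ng/mL TGF-β.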

Test [2] concerns the target T1, recombinant human ALK5 (TGF-βR1) protein (Homo sapiens, UniProt P36897).
T1 construct: purchased Life Technologies PR9075A
T1 sequence (P36897 34-503): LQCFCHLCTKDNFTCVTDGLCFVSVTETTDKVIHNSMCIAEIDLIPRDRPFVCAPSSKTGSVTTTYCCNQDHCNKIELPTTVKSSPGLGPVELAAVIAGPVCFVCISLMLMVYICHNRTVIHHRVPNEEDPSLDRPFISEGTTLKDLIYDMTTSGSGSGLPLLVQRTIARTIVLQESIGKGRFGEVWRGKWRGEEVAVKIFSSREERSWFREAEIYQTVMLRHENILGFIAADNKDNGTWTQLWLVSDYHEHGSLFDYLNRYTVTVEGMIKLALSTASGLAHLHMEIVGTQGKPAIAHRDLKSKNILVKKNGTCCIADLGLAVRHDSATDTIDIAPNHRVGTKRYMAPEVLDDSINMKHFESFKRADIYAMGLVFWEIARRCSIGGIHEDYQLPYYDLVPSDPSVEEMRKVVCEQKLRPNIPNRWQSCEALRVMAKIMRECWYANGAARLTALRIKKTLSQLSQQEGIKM
As to the kind of experiment: Biochemical ALK5 (TGF-βR1) assay to measure pKi (LANCE Ultra ULight kinase assay). As to conditions: apparent pKi from pIC50 by Cheng-Prusoff, read-out: ALK5 pKi (converted). Summed up: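 Dose range 10 μM–25 pM; enzyme + compound 60 min RT; ATP added (5× stock 125 μM, 2 mM DTT); 60 min 37 °C; stop with EDTA + Eu anti-phospho-Topo IIα Thr1342 Ab; TR-FRET ex 320/340, em 665 nm. 4-param pIC50 → pKi (Cheng-Prusoff).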
In general terms: In TR-FRET formats the signal depends on donor and acceptor labels being close together.

For the compound `CNCCn1cc(-c2cnc3ccc(-c4c(-c5cccc(C)n5)nn5c4CNCC5)cc3c2)cn1` [Compound 327, N-methyl-2-[4-[6-[2-(6-methyl-2-pyridyl)-4,5,6,7-tetrahydropyrazolo[1,5-a]pyrazin-3-yl]-3-quinolyl]pyrazol-1-yl]ethanamine], the IC50 in test [1] is 200 to 1260 nM. Besides, in test [2], the Ki was 0.0398 to 0.316 nM.

`COC(=O)c1cnc2ccc(-c3nc[nH]c3-c3cccc(C)n3)cc2c1` [Compound 732, methyl 6-[5-(6-methyl-2-pyridyl)-1H-imidazol-4-yl]quinoline-3-carboxylate]: the IC50 in test [1] is less than 20 nM. Further, in test [2], the Ki is 0.0398 to 0.316 nM.

For `Cc1cccc(-c2[nH]cnc2-c2ccc3ncc(-c4nc(C(=O)OCCN5CCC[C@H](N)C5)cs4)cc3c2)n1` [Compound 1172, 2-[(3S)-3-amino-1-piperidyl]ethyl 2-[6-[5-(6-methyl-2-pyridyl)-1H-imidazol-4-yl]-3-quinolyl]thiazole-4-carboxylate], the IC50 in test [1] was 200 to 1260 nM. Also, the Ki in test [2] was less than 0.0316 nM.

With `Cc1nc(-c2n[nH]cc2-c2ccc3ncc(NCCN4CCN(C(C)C)CC4)cc3n2)ccc1F` [Compound 43, 6-[3-(5-fluoro-6-methyl-2-pyridyl)-1H-pyrazol-4-yl]-N-[2-(4-isopropylpiperazin-1-yl)ethyl]-1,5-naphthyridin-3-amine], the IC50 in test [1] is 25.1 to 158 nM. Also, the Ki in test [2] is 0.0398 to 0.316 nM.

As for `Cc1cccc(-c2[nH]cnc2-c2ccc3ncc(C(=O)OCCN4CC5(CCCNC5)C4)cc3c2)n1` [Compound 890, 2-(2,6-diazaspiro[3.5]nonan-2-yl)ethyl 6-(5-(6-methylpyridin-2-yl)-1H-imidazol-4-yl)quinoline-3-carboxylate], in test [1], the IC50 was 200 to 1260 nM. Besides, in test [2], the Ki was 0.398 to 3.16 nM.

`Cc1cccc(-c2nnn(C)c2-c2ccc3ncc(N4CCCNCC4)cc3c2)n1` [Compound 567, 3-(1,4-diazepan-1-yl)-6-[3-methyl-5-(6-methyl-2-pyridyl)triazol-4-yl]quinoline]: in test [1], the IC50 was 25.1 to 158 nM. Also, the Ki in test [2] was 0.398 to 3.16 nM.

For the compound `Cc1cccc(-c2[nH]cnc2-c2ccc3ncc(C(=O)OC[C@H]4CCCN4)cc3c2)n1` [Compound 760, [(2R)-pyrrolidin-2-yl]methyl 6-[5-(6-methyl-2-pyridyl)-1H-imidazol-4-yl]quinoline-3-carboxylate], the IC50 in test [1] is 25.1 to 158 nM. Also, the Ki in test [2] was 0.398 to 3.16 nM.

Consider `Cc1cccc(-c2[nH]cnc2-c2ccc3ncc(-c4ccc(CN5CCNCC5)nc4)cc3c2)n1` [Compound 1026, 6-[5-(6-methyl-2-pyridyl)-1H-imidazol-4-yl]-3-[6-(piperazin-1-ylmethyl)-3-pyridyl]quinoline], for which, in test [1], the IC50 was 25.1 to 158 nM. In test [2], the Ki was 0.0398 to 0.316 nM.

As to `Cc1cccc(-c2n[nH]cc2-c2ccc3ncc(N4CCN(CCO)CC4)cc3n2)n1` [Compound 639, 2-[4-[6-[3-(6-methyl-2-pyridyl)-1H-pyrazol-4-yl]-1,5-naphthyridin-3-yl]piperazin-1-yl]ethanol], the IC50 in test [1] is 25.1 to 158 nM. Besides, the Ki in test [2] was less than 0.0316 nM.

For the compound `Cc1cccc(-c2[nH]cnc2-c2ccc3ncc(N4CCCC5(CNC5)C4)cc3c2)n1` [Compound 280, 3-(2,6-diazaspiro[3.5]nonan-6-yl)-6-[5-(6-methyl-2-pyridyl)-1H-imidazol-4-yl]quinoline], the IC50 in test [1] was 200 to 1260 nM. In test [2], the Ki is 0.0398 to 0.316 nM.

As to `Cc1nc(-c2n[nH]cc2-c2ccc3ncc(-c4cn5c(n4)NCC5)cc3n2)ccc1F` [Compound 658, 7-(2,3-dihydro-1H-imidazo[1,2-a]imidazol-6-yl)-2-[3-(5-fluoro-6-methyl-2-pyridyl)-1H-pyrazol-4-yl]-1,5-naphthyridine], the IC50 in test [1] is less than 20 nM. Further, the Ki in test [2] is less than 0.0316 nM.

Consider `Cc1nc(-c2n[nH]cc2-c2ccc3ncc(-c4nnc5n4CCNC5)cc3n2)ccc1F` [Compound 631, 2-[3-(5-fluoro-6-methyl-2-pyridyl)-1H-pyrazol-4-yl]-7-(5,6,7,8-tetrahydro-[1,2,4]triazolo[4,3-a]pyrazin-3-yl)-1,5-naphthyridine], for which the IC50 in test [1] is 1580 to 10000 nM. Also, the Ki in test [2] was 3.98 to 31.6 nM.

On to `Cc1cccc(-c2nc3ccccn3c2-c2ccc3ncc(N4CCC(N5CCN(C)CC5)CC4)cc3n2)n1` [Compound 326, 7-[4-(4-methylpiperazin-1-yl)-1-piperidyl]-2-[2-(6-methyl-2-pyridyl)imidazo[1,2-a]pyridin-3-yl]-1,5-naphthyridine], for which the IC50 in test [1] was 25.1 to 158 nM. For the same compound, the Ki in test [2] was 0.0398 to 0.316 nM.

In the case of `Cc1cccc(-c2n[nH]cc2-c2ccc3ncc(-c4cn[nH]c4-c4cccc(C)n4)cc3n2)n1` [Compound 604, 2-[3-(6-methyl-2-pyridyl)-1H-pyrazol-4-yl]-7-[5-(6-methyl-2-pyridyl)-1H-pyrazol-4-yl]-1,5-naphthyridine], the IC50 in test [1] is 25.1 to 158 nM. The Ki in test [2] is 0.398 to 3.16 nM.

Consider `Cc1cccc(-c2[nH]cnc2-c2ccc3ncc(-c4nc(C(=O)O[C@@H]5CCNC5)cs4)cc3c2)n1` [Compound 743, [(3R)-pyrrolidin-3-yl]2-[6-[5-(6-methyl-2-pyridyl)-1H-imidazol-4-yl]-3-quinolyl]thiazole-4-carboxylate], for which the IC50 in test [1] is 25.1 to 158 nM. In test [2], the Ki is 0.0398 to 0.316 nM.

For `Cc1cccc(-c2nc3ccccn3c2-c2ccc3ncc(-c4cn[nH]c4)cc3n2)n1` [Compound 469, 2-(2-(6-methylpyridin-2-yl)imidazo[1,2-a]pyridin-3-yl)-7-(1H-pyrazol-4-yl)-1,5-naphthyridine], in test [1], the IC50 is less than 20 nM. Moreover, in test [2], the Ki is 0.0398 to 0.316 nM.

For the compound `Cc1cccc(-c2[nH]cnc2-c2ccc3ncc(NC4CC5(CNC5)C4)cc3c2)n1` [Compound 200, N-(2-azaspiro[3.3]heptan-6-yl)-6-[5-(6-methyl-2-pyridyl)-1H-imidazol-4-yl]quinolin-3-amine], the IC50 in test [1] is 200 to 1260 nM. The Ki in test [2] was 0.0398 to 0.316 nM.

For the compound `Cc1cccc(-c2[nH]cnc2-c2ccc3ncc(C(=O)O[C@H]4C[C@H](N)C4)cc3c2)n1` [Compound 782, (3-aminocyclobutyl) 6-[5-(6-methyl-2-pyridyl)-1H-imidazol-4-yl]quinoline-3-carboxylate], the IC50 in test [1] was 25.1 to 158 nM. The Ki in test [2] is 0.0398 to 0.316 nM.

For the compound `Cc1cccc(-c2[nH]cnc2-c2ccc3ncc(-c4csc(C(=O)OC[C@@H]5CCCN5)c4)cc3c2)n1` [Compound 1183, [(2S)-pyrrolidin-2-yl]methyl 4-[6-[5-(6-methyl-2-pyridyl)-1H-imidazol-4-yl]-3-quinolyl]thiophene-2-carboxylate], the IC50 in test [1] is 25.1 to 158 nM. Further, the Ki in test [2] is less than 0.0316 nM.

Take `Cc1cccc(-c2[nH]cnc2-c2ccc3ncc(N)cc3c2)n1` [Compound 594, 6-[5-(6-methyl-2-pyridyl)-1H-imidazol-4-yl]quinolin-3-amine]: the IC50 in test [1] was less than 20 nM. Further, the Ki in test [2] was 0.0398 to 0.316 nM.

With `Cc1cccc(-c2[nH]cnc2-c2ccc3ncc(NCCNC4CCCNC4)cc3c2)n1` (racemic) [Compound 217, N-[6-[5-(6-methyl-2-pyridyl)-1H-imidazol-4-yl]-3-quinolyl]-N′-[rac-(3R)-3-piperidyl]ethane-1,2-diamine], the IC50 in test [1] was 200 to 1260 nM. Moreover, the Ki in test [2] was 0.0398 to 0.316 nM.

Take `Cc1cccc(-c2[nH]cnc2-c2ccc3ncc(-c4ccc(C(=O)OC5CCNCC5)cn4)cc3c2)n1` [Compound 1094, 4-piperidyl 6-[6-[5-(6-methyl-2-pyridyl)-1H-imidazol-4-yl]-3-quinolyl]pyridine-3-carboxylate]: the IC50 in test [1] is 25.1 to 158 nM. Moreover, in test [2], the Ki was less than 0.0316 nM.

Turning to `Cc1cccc(-c2[nH]cnc2-c2ccc3ncc(-c4ncc(C(=O)OCCN5CCNCC5)cn4)cc3c2)n1` [Compound 1125, 2-piperazin-1-ylethyl 2-[6-[5-(6-methyl-2-pyridyl)-1H-imidazol-4-yl]-3-quinolyl]pyrimidine-5-carboxylate], the IC50 in test [1] was 25.1 to 158 nM. The Ki in test [2] was less than 0.0316 nM.

Consider `Cc1cccc(-c2[nH]cnc2-c2ccc3ncc(NCC(=O)O)cc3c2)n1` [Compound 1162, 2-[[6-[5-(6-methyl-2-pyridyl)-1H-imidazol-4-yl]-3-quinolyl]amino]acetic acid], for which the IC50 in test [1] was 200 to 1260 nM. Besides, the Ki in test [2] is 0.398 to 3.16 nM.

For the compound `Cc1cccc(-c2[nH]cnc2-c2ccc3ncc(-c4csc(C(=O)OC[C@H]5CCCN5)c4)cc3c2)n1` [Compound 1219, [(2R)-pyrrolidin-2-yl]methyl 4-[6-[5-(6-methyl-2-pyridyl)-1H-imidazol-4-yl]-3-quinolyl]thiophene-2-carboxylate], the IC50 in test [1] was 25.1 to 158 nM. In addition, the Ki in test [2] was less than 0.0316 nM.

As to `Cc1cccc(-c2nnn(Cc3ccccc3)c2-c2ccc3ncc(-c4cnn(C5CCCNC5)c4)cc3n2)n1` (stereo not shown) [Compound 216, 2-(1-benzyl-4-(6-methylpyridin-2-yl)-1H-1,2,3-triazol-5-yl)-7-(1-(piperidin-3-yl)-1H-pyrazol-4-yl)-1,5-naphthyridine], the IC50 in test [1] is 25.1 to 158 nM. The Ki in test [2] was 0.0398 to 0.316 nM.
